Test results reported in patent US12281178B2, “Tuning of pore-forming peptides for increasing pore size, membrane affinity, stability, and antimicrobial activity” (ADOLPHE MERKLE INSTITUTE, UNIVERSITY OF FRIBOURG, priority 2018, dated 2025).
“Also recorded” adds a separate entry of the source.

Key:
[1] = tested on: A549 cells; experiment: Cytotoxic activity: change in confluence of A549 cells over time (IncuCyte); type: cell-based
Experimental: We grew lung epithelial A549 cells in RPMI 1640 medium containing 25 mM HEPES, 1% L-glutamine, 10% fetal bovine serum and added 1% penicillin-streptomycin for prevention of bacterial contamination of cell cultures. We seeded the cells in 96-well plates (TPP, Trasadingen, Switzerland) with 10′000 cells per well, in a total volume of 50 uL per well. We placed the plates in the IncuCyte Zoom imaging system (Essen Bioscience, Ann Arbor, MI, USA) placed inside of an incubator set to 37° C. and 5% CO2 and monitored the growth of the cell by monitoring the change in confluence over time. We seeded the cells and left them to adhere and replicate for 20 h before adding the templated CtxA-DNA assemblies or native CtxA as control. We then measured the cell confluence every 2 h. To estimate the effect of the different peptide assemblies on the change in confluence over time, we fitted the observed confluence levels after peptide addition linearly.

[2] = Planar lipid bilayer single channel recordings of CtxA and flexible-template CtxA-DNA assemblies; type: biochemical
Experimental: The lipid composition for the bilayers consisted of POPC, DOPE and POPS with a 7:3:1 (w/w) ratio (PC/PE/PS) or for the origami structures in diphytanoyl phosphatidylcholine (DiPhyPC). We dissolved the resulting lipid mixture in pentane (total lipid concentration: 10 mg/mL). The buffered electrolyte solution consisted of 1M NaCl, 10 mM HEPES, pH 7.4 or 3M CsCl, 10 mM HEPES, pH 7.4 in 30% glycerol.
We designed Teflon chambers with one big compartment (containing a maximum volume of 1.5 mL) and one small compartment (containing a maximum volume of 200 μL). We pretreated Teflon films (Eastern Scientific LLC, Rockville, MD) with apertures of 50 μm by pipetting 1 μL of pre-treatment solution—hexadecane in hexane 2.5% (v/v)—onto both sides of the aperture of the Teflon film. We then mounted the Teflon film in a Teflon chamber using high-vacuum grease (Dow Corning Corporation), separating the two compartments of the Teflon chamber. The only connection between the compartments was the aperture in the Teflon film over which we formed virtually solvent-free planar lipid bilayers using the technique described by Montal and Mueller^10. Briefly, we added electrolyte solution to both compartments (1.2 mL in the bigger compartment and 160 μL for the smaller one) and spread 1-2 μL of lipid solution onto the surface of the buffered electrolyte solution. After the solvent evaporated, a lipid monolayer (Langmuir film) formed at the air-water interface. […] We then thinned the membrane by lowering and raising the electrolyte solution in one compartment, until we measured a capacitance of 60±10 pF. To monitor capacitance, we applied a triangular voltage and the capacitance was either calculated by the amplifier or determined visually using the manual capacitance compensation of the amplifier. Prior to adding the peptide, we checked the stability of the bilayer (absence of leak currents, expected noise level) by applying transmembrane voltages of up to 200 mV for 5 min at both polarities. We used one of two different amplifiers, an EPC7 (HEKA Instruments Inc., Holliston, MA, USA) or a BC-535 (Warner Instruments Hamden, CT, USA)) and connected both compartments to the amplifier through two Ag/AgCl pellet electrodes (Warner Instruments Hamden, CT, USA). We placed the Teflon chambers inside Faraday cages, on BM4 vibration isolation platforms (Minus K® Technology, Inc., Inglewood, CA, USA). We carried out all experiments at room temperature (22±1° C.) and tested all setups with different model cells to confirm proper functionality of the amplifiers and function generators. We sampled currents at 50 kHz and low-pass 10 kHz. We analysed data using OriginLab (OriginLab Corporation, Northampton, MA, USA) and pClamp (Molecular Devices, Sunnyvale, CA, USA) software.
We performed the experiments with the peptide-DNA hybrid in two different ways: (i) we added all components sequentially—ssDNA-CtxA first, then the template strands, one after the other—or (ii) we mixed the ssDNA-CtxA with the spacer strand (with or without cholesterol) and the template strand in a DNA LoBind tube (Eppendorf Tubes, Hamburg, Germany) and let them react overnight at room temperature (pre-incubation experiments). We also performed the pre-incubation experiments with and without HPLC-SEC purification. In the case of unpurified assemblies, we added the DNA-modified peptides and the spacer strand stoichiometrically and then added the n-mer template (with n equal to 4, 6 or 8) at a ratio of 1 mole for n moles of DNA-modified peptide. When purifying the assemblies, we added the peptide-DNA monomers in excess compared to the template strand (at least 5 n moles of peptide for 1 mol of n-mer template) and removed the excess monomers using HPLC-SEC purification (Agilent SEC 3 column, 300 mm, […], 4.6 mm internal diameter). We then stored the collected assemblies at +4° C. for later use and add the spacer strand in excess prior to the experiment. […]

[3] = applied potential difference of +180 mV

Substance: Ceratotoxin A (SIGSALKKALPVAKKIGKIALPIAKAALPVAAGLVG) [Native CtxA]
- Concentration necessary to reduce cell viability [1]: 50 to 100 µM
- Total CtxA concentration sufficient to completely stop replication of the cells [1]: 100 µM
- Minimum concentration to display significant / frequent pore formation [2]: 10 to 20 nM
- Pore lifetime [2]: hundreds of milliseconds; also recorded: less than one second
- Conductance, open state O1 (3-mer) [2, 3]: 50 ± 25 pS
- Conductance, open state O2 (4-mer) [2, 3]: 510 ± 30 pS
- Conductance, open state O3 (5-mer) [2, 3]: 1645 ± 200 pS
- Conductance, open state O4 (6-mer) [2, 3]: 3125 ± 305 pS
- Conductance, open state O5 (7-mer) [2, 3]: 4630 ± — pS
- Conductance, open state O6 (8-mer) [2, 3]: 6600 ± — pS
- Pore-forming activity ([2]; total peptide concentration of 5 nM, +180 mV): little to no pore formation
